Results as given in ChEMBL document CHEMBL1201862, “PubChem BioAssay data set” (2004).
Active and inactive are the calls of the source.

How the values were obtained:
[1] = bead-based luminescence quenchers, dual-tagged ARNT – biochemical, AlphaScreen, cherry-pick, artefact control for ARNT-TACC3 interaction inhibitor project, dose response (AID 651705); assay type: functional;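 further: AlphaScreen bead proximity signal that flags compounds interfering with the detection technology; potency reflects signal decrease which marks the compound as an assay artifact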
[2] = molecular target: T1, Small ubiquitin-related modifier 1 (Homo sapiens, UniProt P63165); assay: SUMO1 protein interaction blockers, potency – biochemical, fluorescence polarization, uHTS hits, dose response (AID 624382); assay type: functional; conditions: read-out: IC50_Mean
T1 sequence (P63165 whole entry): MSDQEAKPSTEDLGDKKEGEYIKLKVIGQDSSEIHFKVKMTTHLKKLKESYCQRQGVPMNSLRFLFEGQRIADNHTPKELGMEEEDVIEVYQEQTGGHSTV

[3] = molecular target: T1, Small ubiquitin-related modifier 1; assay: SUMO1 protein-protein binding blockers, potency – biochemical, FRET, dose response (AID 624383); assay type: functional; conditions: read-out: IC50_Mean
[4] = molecular target: Genome polyprotein (dengue virus type 2, UniProt P29990); assay: flavivirus cap methylation enzyme inhibition – biochemical, confirmation dose response, primary screen (AID 588689); assay type: functional
Chain of Genome polyprotein (P29990 2492-3391 limits assumed): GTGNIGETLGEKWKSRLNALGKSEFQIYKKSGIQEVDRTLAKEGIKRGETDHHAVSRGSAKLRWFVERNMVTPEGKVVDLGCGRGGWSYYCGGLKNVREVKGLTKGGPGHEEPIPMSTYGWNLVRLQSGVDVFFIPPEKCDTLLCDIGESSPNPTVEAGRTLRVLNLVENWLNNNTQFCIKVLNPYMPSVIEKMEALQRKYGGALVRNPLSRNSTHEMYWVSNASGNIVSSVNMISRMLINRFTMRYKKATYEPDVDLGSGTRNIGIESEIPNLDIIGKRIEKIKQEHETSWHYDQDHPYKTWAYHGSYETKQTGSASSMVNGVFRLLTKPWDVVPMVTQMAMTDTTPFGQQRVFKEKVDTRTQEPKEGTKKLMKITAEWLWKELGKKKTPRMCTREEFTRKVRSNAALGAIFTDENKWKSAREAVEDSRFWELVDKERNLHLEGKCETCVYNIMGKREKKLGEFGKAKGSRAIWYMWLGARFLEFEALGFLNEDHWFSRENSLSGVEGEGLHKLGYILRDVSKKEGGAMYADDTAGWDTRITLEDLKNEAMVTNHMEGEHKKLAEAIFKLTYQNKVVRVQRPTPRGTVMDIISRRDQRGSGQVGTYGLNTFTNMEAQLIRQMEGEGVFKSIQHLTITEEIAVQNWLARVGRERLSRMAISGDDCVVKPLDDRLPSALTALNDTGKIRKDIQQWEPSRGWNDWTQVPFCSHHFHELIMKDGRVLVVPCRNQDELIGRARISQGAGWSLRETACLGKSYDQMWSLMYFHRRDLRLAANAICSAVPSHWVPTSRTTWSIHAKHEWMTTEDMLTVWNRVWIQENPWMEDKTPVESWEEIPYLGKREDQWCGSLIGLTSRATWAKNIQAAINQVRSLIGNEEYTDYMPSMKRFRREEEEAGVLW

[5] = molecular target: T2, Rac GTPase-activating protein 1 (Homo sapiens, UniProt Q9H0H5); assay: blockers of MgcRacGAP-driven Rac1 GTP hydrolysis – biochemical, ADP Hunter fluorescence, primary and confirmatory, confirmation (AID 624330); assay type: functional
T2 sequence (Q9H0H5 whole entry): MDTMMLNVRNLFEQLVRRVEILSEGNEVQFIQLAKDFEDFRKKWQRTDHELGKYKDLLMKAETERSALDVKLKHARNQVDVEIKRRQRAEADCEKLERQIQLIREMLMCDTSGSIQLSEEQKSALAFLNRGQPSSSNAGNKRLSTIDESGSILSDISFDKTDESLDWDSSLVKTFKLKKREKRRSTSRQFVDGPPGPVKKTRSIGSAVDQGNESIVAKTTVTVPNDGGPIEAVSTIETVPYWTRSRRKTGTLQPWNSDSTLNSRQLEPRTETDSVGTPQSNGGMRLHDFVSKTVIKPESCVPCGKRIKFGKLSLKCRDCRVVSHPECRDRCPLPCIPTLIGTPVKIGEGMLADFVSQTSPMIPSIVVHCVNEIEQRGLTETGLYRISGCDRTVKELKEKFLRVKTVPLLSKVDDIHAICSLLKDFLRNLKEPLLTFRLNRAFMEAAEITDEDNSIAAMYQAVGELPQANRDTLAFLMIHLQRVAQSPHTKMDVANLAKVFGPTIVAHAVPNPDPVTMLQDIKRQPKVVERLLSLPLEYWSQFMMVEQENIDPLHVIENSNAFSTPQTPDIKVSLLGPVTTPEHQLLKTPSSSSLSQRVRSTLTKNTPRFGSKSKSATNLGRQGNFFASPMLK

[6] = molecular target: Nuclear receptor subfamily 5 group A member 2 (Homo sapiens, UniProt O00482); assay type: functional, cell-based;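 further: HEK293T cells transfected with LRH-1 and a StAR promoter luciferase reporter; potency for inhibitors that lower LRH-1 driven reporter light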
Chain of Nuclear receptor subfamily 5 group A member 2 (O00482 whole entry): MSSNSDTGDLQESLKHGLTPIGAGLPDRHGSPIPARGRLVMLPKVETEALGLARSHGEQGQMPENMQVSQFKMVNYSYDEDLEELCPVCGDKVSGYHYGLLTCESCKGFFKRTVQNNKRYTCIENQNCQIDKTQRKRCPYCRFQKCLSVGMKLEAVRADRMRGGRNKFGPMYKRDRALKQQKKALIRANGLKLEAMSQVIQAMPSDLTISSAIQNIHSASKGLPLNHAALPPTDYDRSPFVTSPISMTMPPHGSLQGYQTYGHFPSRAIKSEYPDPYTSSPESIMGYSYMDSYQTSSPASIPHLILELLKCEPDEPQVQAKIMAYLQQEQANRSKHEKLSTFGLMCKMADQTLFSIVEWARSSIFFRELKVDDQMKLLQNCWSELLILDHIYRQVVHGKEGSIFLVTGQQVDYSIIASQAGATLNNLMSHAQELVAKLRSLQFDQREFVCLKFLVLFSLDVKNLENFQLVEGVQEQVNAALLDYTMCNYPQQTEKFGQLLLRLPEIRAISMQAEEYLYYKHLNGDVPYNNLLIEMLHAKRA

[7] = nonselective StAR promoter luciferase inhibitors – cell-based, luminescence, luciferase reporter, counter-screen for LRH-1 inverse agonist project, dose response (AID 651969); assay type: functional
[8] = molecular target: Steroidogenic factor 1 (Homo sapiens, UniProt Q13285); assay: Counterscreen for inverse agonists of the liver receptor homolog-1 (LRH-1; NR5A2): Luminescence-based cell-based high throughput dose response assay to identify inverse agonists of the Steroidogenic Factor 1 Nuclear Receptor (SF1; NR5A1).; assay type: functional
Chain of Steroidogenic factor 1 (Q13285 whole entry): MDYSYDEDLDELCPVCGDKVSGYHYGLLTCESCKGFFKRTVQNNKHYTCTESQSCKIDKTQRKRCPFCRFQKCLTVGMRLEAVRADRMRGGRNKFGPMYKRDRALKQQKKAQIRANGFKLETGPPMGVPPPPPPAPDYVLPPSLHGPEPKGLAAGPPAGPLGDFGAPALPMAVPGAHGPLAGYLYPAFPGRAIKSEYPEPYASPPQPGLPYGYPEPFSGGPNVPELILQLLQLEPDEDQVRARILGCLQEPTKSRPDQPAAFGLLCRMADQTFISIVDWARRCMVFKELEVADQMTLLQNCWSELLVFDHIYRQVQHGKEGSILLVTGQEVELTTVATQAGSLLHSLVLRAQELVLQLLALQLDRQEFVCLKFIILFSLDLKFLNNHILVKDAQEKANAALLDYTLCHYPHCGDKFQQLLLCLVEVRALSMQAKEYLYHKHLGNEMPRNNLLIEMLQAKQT

[9] = NIH3T3 cell viability loss – ATP luminescence, mouse fibroblasts, counter-screen, dose response (AID 2010); assay type: functional, cell-based;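 further: cells exposed to compound for about 90 hours before reading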
[10] = Counterscreen for inhibitors of Trypanosoma brucei methionyl tRNA synthetase (MetRS): Luminescence-based cell-based high throughput dose response assay to identify compounds that are cytotoxic to Jurkat human T lymphocyte cells.; assay type: functional
[11] = Trypanosoma cruzi growth suppression in host cells – NIH3T3 host cells, beta-gal luminescence, confirmation (AID 2044); assay type: functional, cell-based;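 further: intracellular parasites grown in NIH/3T3 mouse fibroblasts as host cells; luminescent beta-galactosidase reporter signal from transgenic T. cruzi replicating inside host cells; inhibitors lower the luminescence signal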
[12] = molecular target: T3, Methionyl-tRNA synthetase, putative (Trypanosoma brucei brucei, UniProt Q38C91); assay type: functional, Trypanosoma brucei brucei strain 927/4 GUTat10.1
T3 sequence (Q38C91 whole entry): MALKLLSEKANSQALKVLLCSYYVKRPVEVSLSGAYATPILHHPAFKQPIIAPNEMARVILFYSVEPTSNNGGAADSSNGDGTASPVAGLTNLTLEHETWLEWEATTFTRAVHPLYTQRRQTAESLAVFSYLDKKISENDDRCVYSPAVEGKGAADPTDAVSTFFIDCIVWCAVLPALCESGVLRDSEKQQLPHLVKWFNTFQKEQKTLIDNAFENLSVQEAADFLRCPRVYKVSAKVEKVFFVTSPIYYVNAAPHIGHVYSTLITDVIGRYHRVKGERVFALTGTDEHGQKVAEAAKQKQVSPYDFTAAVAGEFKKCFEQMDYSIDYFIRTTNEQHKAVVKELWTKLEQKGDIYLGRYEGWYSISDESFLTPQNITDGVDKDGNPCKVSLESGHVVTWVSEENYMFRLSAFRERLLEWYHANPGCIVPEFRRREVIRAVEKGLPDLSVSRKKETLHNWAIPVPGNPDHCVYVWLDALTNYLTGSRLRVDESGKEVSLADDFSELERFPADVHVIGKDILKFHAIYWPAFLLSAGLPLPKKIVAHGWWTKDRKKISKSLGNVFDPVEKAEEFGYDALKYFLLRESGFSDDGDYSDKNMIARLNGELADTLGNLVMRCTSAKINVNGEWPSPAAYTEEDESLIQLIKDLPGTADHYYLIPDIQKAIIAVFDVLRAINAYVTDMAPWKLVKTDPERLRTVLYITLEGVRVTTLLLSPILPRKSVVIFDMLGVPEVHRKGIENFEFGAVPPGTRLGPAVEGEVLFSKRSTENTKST

[13] = molecular target: T3, Methionyl-tRNA synthetase, putative; assay type: functional, Trypanosoma brucei brucei strain 927/4 GUTat10.1; remark: listed apart in the source
[14] = cells
[15] = molecular target: Melanocortin receptor 4 (Homo sapiens, UniProt P32245); assay type: functional, cell-based;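 further: Cell-based assay with luminescence read-out, confirmatory dose-response testing for agonist activity of biased ligands at MC4R; human U2OS cells with tagged receptor and beta-arrestin; potency of agonists that increase receptor coupling to beta-arrestin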
Chain of Melanocortin receptor 4 (P32245 whole entry): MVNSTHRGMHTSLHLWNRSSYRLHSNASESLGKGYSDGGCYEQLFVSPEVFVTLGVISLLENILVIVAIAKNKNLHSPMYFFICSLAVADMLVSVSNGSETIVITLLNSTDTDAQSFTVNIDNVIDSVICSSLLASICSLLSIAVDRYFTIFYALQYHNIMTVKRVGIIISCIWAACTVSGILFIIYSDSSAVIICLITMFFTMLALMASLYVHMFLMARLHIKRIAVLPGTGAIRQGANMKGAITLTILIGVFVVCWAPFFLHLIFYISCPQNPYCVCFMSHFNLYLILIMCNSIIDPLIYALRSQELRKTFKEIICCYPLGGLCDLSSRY

[16] = viability loss of HMLE_sh_eGFP cells – cell-based, luminescence, counter-screen for HMLE_sh_ECad selective toxicity project, dose response (AID 463074); assay type: functional, Homo sapiens;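 further: HMLE human mammary epithelial cells expressing control shRNA against eGFP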
[17] = Luminescence Cell-Based Dose Retest to Confirm Inhibitors of Cancer Stem Cells. [Related pubchem assays (depositor defined):AID2717, AID2721]; assay type: functional; conditions: Homo sapiens
[18] = molecular target: Tyrosine-protein phosphatase non-receptor type 5 (Homo sapiens, UniProt P54829); assay: PTPN5 enzyme inhibition – biochemical, fluorescence intensity, uHTS hits, confirmation (AID 602372); assay type: functional; conditions: read-out: IC50_Mean
Chain of Tyrosine-protein phosphatase non-receptor type 5 (P54829 whole entry): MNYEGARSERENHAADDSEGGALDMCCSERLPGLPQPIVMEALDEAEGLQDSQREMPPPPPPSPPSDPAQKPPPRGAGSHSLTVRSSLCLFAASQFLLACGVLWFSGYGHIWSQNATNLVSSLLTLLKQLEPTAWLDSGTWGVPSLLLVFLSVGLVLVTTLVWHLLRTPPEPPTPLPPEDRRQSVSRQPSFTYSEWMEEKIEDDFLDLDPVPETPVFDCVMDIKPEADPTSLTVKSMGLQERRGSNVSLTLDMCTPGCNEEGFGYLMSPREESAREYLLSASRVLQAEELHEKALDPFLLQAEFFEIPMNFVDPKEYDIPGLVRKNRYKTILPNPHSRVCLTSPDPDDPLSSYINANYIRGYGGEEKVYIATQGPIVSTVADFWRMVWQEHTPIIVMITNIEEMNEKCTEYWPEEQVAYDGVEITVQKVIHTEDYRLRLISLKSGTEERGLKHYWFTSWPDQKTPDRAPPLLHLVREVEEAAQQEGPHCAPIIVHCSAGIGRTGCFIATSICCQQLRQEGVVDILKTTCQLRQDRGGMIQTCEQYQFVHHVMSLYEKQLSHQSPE

[19] = molecular target: Dual specificity protein phosphatase 3 (Homo sapiens, UniProt P51452); assay: VHR phosphatase inhibition, dose response, selectivity assay for STEP inhibitor project, biochemical (AID 602374); assay type: functional; conditions: read-out: IC50_Mean
Chain of Dual specificity protein phosphatase 3 (P51452 whole entry): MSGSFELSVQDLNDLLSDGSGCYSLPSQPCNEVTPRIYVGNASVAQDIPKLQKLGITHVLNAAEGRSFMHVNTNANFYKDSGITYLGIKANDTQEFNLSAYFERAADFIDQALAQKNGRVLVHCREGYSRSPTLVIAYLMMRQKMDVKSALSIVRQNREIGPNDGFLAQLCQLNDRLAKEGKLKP

[20] = molecular target: Tyrosine-protein phosphatase non-receptor type 11 (Homo sapiens, UniProt Q06124); assay: PTPN11 enzyme inhibitors – biochemical, selectivity assay for STEP inhibitor project, dose response (AID 602367); assay type: functional; conditions: read-out: IC50_Mean
Chain of Tyrosine-protein phosphatase non-receptor type 11 (Q06124 whole entry): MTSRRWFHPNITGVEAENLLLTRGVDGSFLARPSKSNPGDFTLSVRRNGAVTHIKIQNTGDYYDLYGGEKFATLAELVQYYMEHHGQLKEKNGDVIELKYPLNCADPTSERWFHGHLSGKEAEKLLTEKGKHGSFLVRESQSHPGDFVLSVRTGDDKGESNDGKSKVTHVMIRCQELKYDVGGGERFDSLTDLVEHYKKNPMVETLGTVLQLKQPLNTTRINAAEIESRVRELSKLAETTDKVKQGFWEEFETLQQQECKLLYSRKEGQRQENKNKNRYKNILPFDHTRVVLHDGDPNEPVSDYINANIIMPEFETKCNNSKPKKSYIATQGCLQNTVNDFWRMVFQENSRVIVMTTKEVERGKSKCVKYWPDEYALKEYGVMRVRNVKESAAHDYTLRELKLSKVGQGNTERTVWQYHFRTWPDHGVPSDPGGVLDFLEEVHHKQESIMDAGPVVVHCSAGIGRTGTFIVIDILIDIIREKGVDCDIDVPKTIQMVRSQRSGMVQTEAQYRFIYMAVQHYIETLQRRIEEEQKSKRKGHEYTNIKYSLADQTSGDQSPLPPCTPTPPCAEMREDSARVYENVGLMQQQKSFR

[21] = molecular target: T4, Low molecular weight phosphotyrosine protein phosphatase (Homo sapiens, UniProt P24666); assay type: functional; conditions: read-out: IC50_Mean
T4 sequence (P24666 whole entry): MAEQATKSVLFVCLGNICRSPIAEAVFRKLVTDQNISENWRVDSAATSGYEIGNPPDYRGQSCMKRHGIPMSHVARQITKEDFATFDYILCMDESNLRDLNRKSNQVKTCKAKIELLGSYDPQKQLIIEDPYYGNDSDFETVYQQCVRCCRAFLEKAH

[22] = molecular target: T4, Low molecular weight phosphotyrosine protein phosphatase; assay type: functional; conditions: read-out: IC50_Mean; remark: listed apart in the source
[23] = molecular target: T5, Hexokinase (Trypanosoma brucei, UniProt Q38C41); assay: Confirmation assay for inhibitors of Trypanosoma brucei hexokinase 1-Analogue-first series. [Related pubchem assays (depositor defined):AID1430, AID1632, AID2516, AID2560, AID2579, AID2600, AID449725, AID492951]; assay type: functional
T5 sequence (Q38C41 whole entry): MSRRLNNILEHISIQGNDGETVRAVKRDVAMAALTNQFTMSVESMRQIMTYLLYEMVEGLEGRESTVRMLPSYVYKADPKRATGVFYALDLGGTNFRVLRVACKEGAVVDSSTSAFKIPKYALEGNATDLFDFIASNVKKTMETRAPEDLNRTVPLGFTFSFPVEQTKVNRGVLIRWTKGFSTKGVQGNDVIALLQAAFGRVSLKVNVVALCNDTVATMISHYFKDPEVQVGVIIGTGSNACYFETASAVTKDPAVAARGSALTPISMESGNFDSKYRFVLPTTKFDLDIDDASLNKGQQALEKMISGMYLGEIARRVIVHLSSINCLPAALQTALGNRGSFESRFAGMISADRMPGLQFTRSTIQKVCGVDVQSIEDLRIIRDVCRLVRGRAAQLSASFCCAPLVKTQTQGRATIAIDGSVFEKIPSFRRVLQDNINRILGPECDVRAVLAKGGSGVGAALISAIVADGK

[24] = molecular target: Glucose-6-phosphate 1-dehydrogenase (Homo sapiens, UniProt P11413); assay: inhibition of Homo sapiens G6PD, dose series – biochemical, fluorescence, selectivity assay for P. falciparum G6PD inhibitor project, dose response (AID 504792); assay type: functional
[25] = Fluorescence-based cell-based high throughput dose response assay for inhibitors of the interaction of nucleotide-binding oligomerization domain containing 2 (NOD2) and the receptor-interacting serine-threonine kinase 2 (RIPK2).; assay type: functional; conditions: Homo sapiens
[26] = system: Vero; assay: viability loss in Vero cells – cell-based, plate reader, cherry-pick samples, cytotoxicity control, dose response (AID 687020); assay type: functional; conditions: Chlorocebus sabaeus
[27] = molecular target: Photoreceptor-specific nuclear receptor (Homo sapiens, UniProt Q9Y5X4); assay type: functional, cell-based;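 further: CHO-S cells with Gal4-NCOR and VP16-NR2E3 two-hybrid luciferase reporter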
[28] = molecular target: Aryl hydrocarbon receptor (Homo sapiens, UniProt P35869); conditions: Potency;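 further: confirmatory quantitative high-throughput screen measuring activation of the AhR signaling pathway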
[29] = molecular target: Arf-GAP with SH3 domain, ANK repeat and PH domain-containing protein 1 (Homo sapiens, UniProt Q9ULH1); assay type: functional;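 further: biochemical fluorescence polarization dose–response screen measuring inhibition of ASAP1; ASAP1 GAP domain stimulating GTP hydrolysis by truncated human ARF1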
Chain of Arf-GAP with SH3 domain, ANK repeat and PH domain-containing protein 1 (Q9ULH1 whole entry, the tested form may be a part): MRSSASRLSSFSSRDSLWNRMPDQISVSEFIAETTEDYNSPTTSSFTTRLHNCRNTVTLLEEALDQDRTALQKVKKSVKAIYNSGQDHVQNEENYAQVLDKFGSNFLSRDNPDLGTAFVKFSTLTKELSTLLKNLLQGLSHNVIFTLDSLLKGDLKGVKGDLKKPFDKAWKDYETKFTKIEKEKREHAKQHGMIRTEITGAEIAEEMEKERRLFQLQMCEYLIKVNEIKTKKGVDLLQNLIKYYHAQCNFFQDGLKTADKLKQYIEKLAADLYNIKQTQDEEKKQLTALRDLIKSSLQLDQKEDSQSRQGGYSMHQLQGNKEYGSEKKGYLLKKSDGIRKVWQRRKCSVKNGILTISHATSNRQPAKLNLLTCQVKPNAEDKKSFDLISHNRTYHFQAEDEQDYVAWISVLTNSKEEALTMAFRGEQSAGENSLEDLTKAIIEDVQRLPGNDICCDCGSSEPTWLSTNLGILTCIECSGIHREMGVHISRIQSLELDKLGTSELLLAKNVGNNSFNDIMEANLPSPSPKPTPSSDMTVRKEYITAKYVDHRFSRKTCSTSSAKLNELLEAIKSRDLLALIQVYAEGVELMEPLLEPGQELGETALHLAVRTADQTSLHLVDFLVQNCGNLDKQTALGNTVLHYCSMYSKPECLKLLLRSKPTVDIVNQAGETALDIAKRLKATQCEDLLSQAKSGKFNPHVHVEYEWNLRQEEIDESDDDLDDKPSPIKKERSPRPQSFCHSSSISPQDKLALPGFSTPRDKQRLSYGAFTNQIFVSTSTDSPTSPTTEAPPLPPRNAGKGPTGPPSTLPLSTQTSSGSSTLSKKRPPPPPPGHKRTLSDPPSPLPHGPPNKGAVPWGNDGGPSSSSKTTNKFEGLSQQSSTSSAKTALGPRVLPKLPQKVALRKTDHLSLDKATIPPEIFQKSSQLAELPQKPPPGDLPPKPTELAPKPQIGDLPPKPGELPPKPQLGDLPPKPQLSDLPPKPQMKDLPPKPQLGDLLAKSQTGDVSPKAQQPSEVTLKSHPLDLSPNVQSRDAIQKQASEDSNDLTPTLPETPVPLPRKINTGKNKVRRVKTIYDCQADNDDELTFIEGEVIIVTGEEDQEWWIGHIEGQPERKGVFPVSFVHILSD

## Cc1nnc(O)nc1N/N=C/c1ccco1
[1]
  AC50: 119 µM (active)

## COc1ccccc1Nc1ccc2c(O)cc(S(=O)(=O)O)cc2c1
[2]
  IC50: > 66.6 µM (inactive)
[3]
  IC50: 3.41 µM (active)
[4]
  IC50: 60.5 µM (active)
[5]
  IC50: 90.4 µM (active)

## NC(=O)C1CCN(C(=O)COc2ccc3c4c(c(=O)oc3c2)CCCC4)CC1
[6]
  IC50: 3.98 µM (active)
[7]
  IC50: 35.9 µM (inactive)
[8]
  IC50: 4.4 µM (active)

## OC(COc1ccc2cc(Br)ccc2c1)Cn1ccnc1 (configuration not stated)
[9]
  EC50: > 60 µM (not active)
[10]
  IC50: 83.3 µM (inactive)
[11]
  EC50: < 0.1 µM (active)
[12]
  IC50: 28.2 µM (inactive)
[13]
  IC50: 94.1 µM (inactive)
[14]
  EC50: 0.126 µM (active)

## Cc1nn(CC(=O)Nc2ccc3c(c2)OCCO3)c(C)c1[N+](=O)[O-]
[6]
  IC50: 14.3 µM (inactive)
[7]
  IC50: 35.9 µM (inactive)
[8]
  IC50: 3.1 µM (active)

## COc1cc(/C=C2\Oc3ccc(C#Cc4ccc(O)cc4)cc3C2=O)cc(OC)c1
[15]
  EC50: > 89.2 µM (inactive)
[16]
  AC50: 29.7 µM (active)
[17]
  AC50: 1.41 µM (active)

## Cc1ccccc1N1CCN(C(=S)c2ccc(-c3cccc([N+](=O)[O-])c3)o2)CC1
[18]
  IC50: 62.2 µM (inactive)
[19]
  IC50: 4.61 µM (active)
[20]
  IC50: 11.3 µM (active)

## Cc1cc(C)c2c(N)c(C(=O)c3ccc(Cl)c(Cl)c3)sc2n1
[21]
  IC50: 4.5 µM (active)
[9]
  EC50: > 60 µM (not active)
[22]
  IC50: 14.2 µM (active)
[11]
  EC50: 0.166 µM (active)

## COc1ccc(NC(=O)CSc2c(C)nn(-c3nnc(C)c(O)n3)c2C)cc1
[1]
  AC50: 133 µM (active)

## O=C(Cn1sc2ccccc2c1=O)Nc1ccc(Cl)cc1
[23]
  IC50: 12.9 µM (active)
[24]
  IC50: 12.5 µM (active)
[25]
  IC50: 7.04 µM (active)

## O=C(c1cccc(Cl)c1)N1CCC2(CC1)NCCc1[nH]cnc12
[26]
  AC50: 34 µM (active)

## COc1ccc([C@@H]2C[C@H]3[C@@H](CN2S(=O)(=O)c2ccccc2)C(=O)C[C@@H](c2cccc(Cl)c2)N3S(=O)(=O)c2ccc(C)cc2)cc1
[27]
  IC50: 39.8 µM (inactive)

## CCNP(=S)(OC)O/C(C)=C/C(=O)OC(C)C (configuration not stated) [PROPETAMPHOS]
[28]
  AC50: 50.1 µM (inconclusive)

## COC(=O)c1cccc(Nc2nc(-c3ccncc3)nc3ccccc23)c1
[2]
  IC50: > 66.6 µM (inactive)
[3]
  IC50: 4.11 µM (active)
[29]
  IC50: 10.5 µM (inactive)
